# Legend:
# cJUN protein = cJUN protein induced by UV radiation in skin of human volunteers (FIG. 3); type: in vivo; conditions: 5% genistein in DMSO, topical, occluded 24 hours; 2 MEDs UV; biopsy 8 hours after exposure; vs vehicle-treated skin
# Protocol: The same procedure as described above was repeated, except that biopsy for cJUN protein was taken 8 hours after exposure to the UV radiation. […] The inset in the figure is a Western blot showing the amount of cJUN protein in genistein-treated versus vehicle-treated skin.
# MMP-1 mRNA = MMP-1 mRNA induced by UV radiation in skin of human volunteers (FIG. 4); type: in vivo; conditions: 5% genistein in DMSO, topical, occluded 24 hours; 2 MEDs UV; biopsy 24 hours after exposure; vs vehicle-treated skin
# Protocol: The same procedure as described above was repeated, except that biopsy for MMP-1 mRNA was taken 24 hours after exposure to the UV radiation.
# JNK = JNK activation in UV-irradiated skin of human volunteers (FIG. 2); conditions: occluded 24 hours
# Protocol: Human volunteers, each having given informed consent, were used to determine the effect, if any, of pretreatment of their skin with an EGF-R PTK inhibitor prior to exposure of the skin to UV radiation. […] On the hip or buttock skin of volunteers, the test solution was placed (or on adjacent areas if both solutions were used), and the areas occluded for 24 hours; thereafter, the area was biopsied, or it was exposed to 2 MEDs of UV radiation and biopsied after exposure.
# After the volunteers' skin was occuled for 24 hours, it was biopsied, and other areas were exposed to 2 MEDs of UV radiation and then biopsied about 4 hours thereafter.
# [1] = test system: IRAK (IL-1 Receptor-Activated Kinase); assay: IRAK phosphorylation/activity in cells in culture; type: cell-based
# From the text: IRAK (IL-1 Receptor-Activated Kinase) is a protein […] kinase (enzyme) that binds to and is activated by IL-1R (the IL-1 receptor) and in turn activates a pathway that leads to induction of c-JUN kinase, MMPs, and thus collagen degradation.
# c-JUN kinase = c-JUN kinase activity (phosphorylation of GST-c-jun) in cultured human keratinocytes after UV; type: cell-based
"skin penetration of the topical solution (JNK; 5% genistein in DMSO on human hip or buttock skin, inferred from the JNK results)","phospho-GST-c-jun protein levels (c-JUN kinase; cultured human keratinocytes pretreated, then exposed to UV radiation)",Structure (SMILES),increase in the amount of cJUN protein after UV exposure (cJUN protein),increase in MMP-1 mRNA induced by UV (MMP-1 mRNA),"JNK activation (JNK; 5% genistein in DMSO, topical, 2 MEDs UV, biopsy about 4 hours after exposure)",phosphorylated IRAK ([1]; PD 153035-treated cells exposed to IL-1),"IRAK activity ([1]; cells in culture treated with PD 153035 alone, no challenge)",phosphorylated IRAK ([1]; cells treated with PD 153035 and then challenged with UV or EGF),phospho-GST-c-jun protein (c-JUN kinase; cultured human keratinocytes not exposed to UV)
able to penetrate the skin,,"O=c1c(-c2ccc(O)cc2)coc2cc(O)cc(O)c12 [genistein, 4′,5,7-trihydroxyisoflavone]",significantly inhibited,significantly inhibited,significantly reduced the amount of JNK activated,,,,
,comparable with the baseline levels,COc1cc2ncnc(Nc3cccc(Br)c3)c2cc1OC [PD 153035],,,,no reduction in phosphorylated IRAK,minimal baseline amount of IRAK activity,clearly had less phosphorylated IRAK,baseline amount of phospho-GST-c-jun protein
